Data from patent US5155107A, “17β-substituted-4-aza-5α-androstan-3-one derivatives and process for their preparation” (Farmitalia Carlo Erba, priority 1990, dated 1992).
Read-outs that look alike come from different tables or passages of the source.

Legend:
[1] = biological target: T1, 5α-reductase (particulate fraction of human benign prostatic hypertrophy tissue) (Homo sapiens, UniProt P31213); test: Inhibition of prostatic 5α-reductase in vitro; assay type: biochemical
T1 construct: homogenates of human benign prostatic hypertrophy tissue as the enzyme source; from tissue; host or cells: human benign prostatic hypertrophy tissue, 40,000×g particulate fraction (nuclei, microsomes, mitochondria)
T1 sequence (P31213 1-254): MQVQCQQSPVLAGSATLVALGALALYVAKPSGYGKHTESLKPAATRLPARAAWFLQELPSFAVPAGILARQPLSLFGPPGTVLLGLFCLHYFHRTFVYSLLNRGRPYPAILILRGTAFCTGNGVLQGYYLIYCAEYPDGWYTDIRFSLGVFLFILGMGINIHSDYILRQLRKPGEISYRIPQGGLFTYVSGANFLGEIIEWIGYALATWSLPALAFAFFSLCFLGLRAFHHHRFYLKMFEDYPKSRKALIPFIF
Description: For example, the inhibitory effect of the compounds of the invention on 5α-reductase was determined in vitro in comparison with progesterone taken as the reference compound, according to the procedure reported herebelow.
Inhibition of 5α-reductase was evaluated using the particulate fraction (containing nuclei, microsomes and mitochondria) from homogenates of human benign prostatic hypertrophy tissue as the enzyme source. The particulate fraction was prepared centrifuging prostate homogenate at 40,000×g. The resulting pellet, washed several times, was resuspended in buffer and stored at -80° C. in aliquots containing ≈10 mg protein/ml.
The assay for 5α-reductase was done in a final volume of 0.5 ml, containing 1 mM dithiothreitol, 40 mM TRIS-HCl buffer pH 5.0, 5 mM NADPH, 1 μM [4-^14 C]testosterone, 0.3 mg of prostate particulate fraction and various concentrations of the inhibitors. After 30 min incubation at 37° C. the reaction was terminated by addition of 1.5 ml diethyl ether and the organic phase was separated, evaporated under N2 and resuspended in ethyl acetate. Testosterone metabolites in this extract were separated in TLC on silica gel F 254 plates (Merck) using chloroform, acetone and n-hexane (2:1:2) as developing solvent system. Radioactivity on the plate was scanned and analyzed from quantitative plots printed by a TLC-analyzer (Berthold). The fractional 5α-reduction of testosterone was calculated by relating the ^14 C-radioactivity in the 5α-reduced metabolites (5α-dihydrotestosterone, 3α- and 3β-androstanediols) regions to the total radioactivity in the testosterone and 5α-reduced metabolites regions.
The concentration of each compound required to reduce control 5α-reductase by 50% (IC50) was determined by plotting % inhibition versus log of inhibitor concentration.
As an example, the potency of three representative compounds of the invention, namely 4-methyl-17β-[N-isopropyl-N-(N-isopropylcarbamoyl)carbamoyl]-4-aza-5α-androstan-3-one (Compound 1), 4-methyl-17β-[N-cyclohexyl-N-(N-cyclohexylcarbamoyl) carbamoyl-4-aza-5α-androstan-3-one (Compound 11) and 4-methyl-17β-[N-isopropyl-N-(N-isopropylthiocarbamoyl)carbamoyl-4-aza-5α-androstan-3-one (Compound 39) are reported in Table 1 in comparison with progesterone.

[2] = biological target: T2, cytoplasmic androgen (rat prostate) receptors (Rattus norvegicus, UniProt P15207); test: Rat prostate androgen receptor binding (inhibition of 3H-DHT binding); design: species or system Sprague-Dawley rats
T2 construct: Prostatic tissue, obtained from adrenalectomized and castrated Sprague-Dawley rats; from tissue; host or cells: prostate cytosol of adrenalectomized and castrated Sprague-Dawley rats
T2 sequence (P15207 1-902): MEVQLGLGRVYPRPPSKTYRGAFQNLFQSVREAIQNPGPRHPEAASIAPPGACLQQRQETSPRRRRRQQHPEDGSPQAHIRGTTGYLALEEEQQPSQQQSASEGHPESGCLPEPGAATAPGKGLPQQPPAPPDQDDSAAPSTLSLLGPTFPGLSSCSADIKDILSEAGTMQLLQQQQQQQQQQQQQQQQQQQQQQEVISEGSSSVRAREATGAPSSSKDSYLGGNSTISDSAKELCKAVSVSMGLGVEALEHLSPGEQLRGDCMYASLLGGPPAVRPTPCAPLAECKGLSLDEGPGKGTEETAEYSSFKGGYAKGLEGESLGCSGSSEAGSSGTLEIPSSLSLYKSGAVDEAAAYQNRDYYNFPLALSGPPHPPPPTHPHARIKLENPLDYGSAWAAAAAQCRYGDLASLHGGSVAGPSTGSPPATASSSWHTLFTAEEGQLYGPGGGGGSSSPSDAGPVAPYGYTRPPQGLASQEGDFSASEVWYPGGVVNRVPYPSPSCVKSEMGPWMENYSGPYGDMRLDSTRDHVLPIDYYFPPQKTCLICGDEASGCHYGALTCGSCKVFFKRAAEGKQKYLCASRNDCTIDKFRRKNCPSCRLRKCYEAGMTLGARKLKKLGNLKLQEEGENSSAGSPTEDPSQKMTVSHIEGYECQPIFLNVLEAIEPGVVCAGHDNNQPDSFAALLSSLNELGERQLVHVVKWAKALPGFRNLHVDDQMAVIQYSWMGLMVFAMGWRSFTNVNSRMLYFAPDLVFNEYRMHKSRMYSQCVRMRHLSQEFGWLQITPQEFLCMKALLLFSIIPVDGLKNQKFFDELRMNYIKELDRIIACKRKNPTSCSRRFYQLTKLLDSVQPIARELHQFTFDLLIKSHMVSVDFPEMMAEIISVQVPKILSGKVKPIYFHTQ
Description: For their use in androgen- dependent conditions, the 5α-reductase inhibitors, should have a very low intrinsic androgenic activity, which can be shown by the binding affinity to the androgen receptor.
A low binding affinity to the androgen receptor is therefore desirable in a 5α-reductase inhibitor for use in the treatment of androgen dependent conditions.
Binding affinity to cytoplasmic androgen (rat prostate) receptors was determined by standard dextran-coated absorption technique (Raynaud J. P. et al., J. Steroid. Biochem. 6: 615-622, 1975).
Prostatic tissue, obtained from adrenalectomized and castrated Sprague-Dawley rats, was homogenized in 10 mM Tris HCl pH 7.4, containing 1.5 mM EDTA and 1 mM dithiothreitol in motor driven tissue grinders. The homogenate was centrifuged at 10,000×g for 1 h at 4° C.
Aliquots of cytosol 00.2 ml) were incubated for 2 hours at 0° C. with various concentrations of the test compounds, in duplicate, and a fixed amount of ^3 H-dihydrotesterone (DHT) final concentration 1 nM in 0.4 ml of incubation volume).
Then, free radioactivity was absorbed on 0.2 ml of dextran-coated charcoal suspension and after centrifugation at 1,500×g for 10 min., the bound radioactivity in the supernatant was determined by liquid scintillation in Rialuma.
The concentration of each compound required to reduce specific ^3 H-DHT binding by 50% (IC50) was determined from a plot of bound radioactivity versus log of competitor concentration.
In the above test the Compound 1 of the present invention was compared with the same above identified reference compound 4-MA and the obtained results are reported in the following Table 3.

[3] = test system: 5α-reductase of rat prostate; test: Inhibition of prostate growth stimulated by testosterone propionate in castrated rats; assay type: in vivo; details: for Inhibition of prostate growth stimulated by testosterone propionate: 7 days, testosterone propionate 0.3 mg/kg/day s.c.
Description: The compounds of the invention were also tested for their in vivo potency in inhibiting 5α-reductase of rat prostate, according to the following procedure.
Prepuberal 21-day old male rat were castrated via scrotal incision in light ether anaesthesia.
Starting on the seventh day after orchiectomy, the rats were treated with testosterone propionate (0.3 mg/kg/day subcutaneously) for 7 consecutive days to stimulate prostate growth. The 5α-reductase inhibitors were given orally at various doses once daily for 7 days, together with the standard dose of testosterone propionate.
Thus, for example, in the above test the compound 1 of the present invention was compared with the well known 5α-reductase inhibitor 4-methyl-17β-N,N-diethyl-carbamoyl-4-methyl-4-aza-5α-androstan- 3-one, identified as 4-MA and described, e.g., in U.S. Pat. No. 4,377,584) giving the results reported in the following Table 2.

[4] = human BPH particulate fraction, 1 μM [4-14C]testosterone, pH 5.0, 30 min, 37° C., read-out: Inhibition of prostatic 5α-reductase IC50

SMILES: CC(C)NC(=O)N(C(=O)[C@H]1CC[C@H]2[C@@H]3CC[C@H]4N(C)C(=O)CC[C@]4(C)[C@H]3CC[C@]12C)C(C)C [Compound 1, 4-methyl-17β-[N-isopropyl-N-(N-isopropylcarbamoyl)carbamoyl]-4-aza-5α-androstan-3-one]
- IC50 [1, 4]: 0.055 µM
- IC50 [2]: 150 µM
- selectivity versus androgen receptor binding ([2]; Compound 1 versus reference compound 4-MA): more selective than the reference compound 4-MA
- displacement of DHT from the prostatic androgen receptor ([2]; Table 3): displaces DHT from the prostatic androgen receptor only at a very high concentration
- Inhibition of prostate growth stimulated by testosterone propionate ([3]; 3 mg/kg/day p.o.): 33%
- Inhibition of prostate growth stimulated by testosterone propionate ([3]; 10 mg/kg/day p.o.): 55%

SMILES: CCN(CC)C(=O)[C@H]1CC[C@H]2[C@@H]3CC[C@H]4N(C)C(=O)CC[C@]4(C)[C@H]3CC[C@]12C [Compound 4-MA, 4-methyl-17β-N,N-diethyl-carbamoyl-4-methyl-4-aza-5α-androstan-3-one]
- displaces DHT at a concentration lower than Compound 1 (fold) ([2]; 4-MA versus Compound 1): 60 times lower
- IC50 ([2]; rat prostate cytosol, 1 nM 3H-DHT, 2 hours, 0° C., read-out: Inhibition of DHT binding IC50): 2.5 µM
- Inhibition of prostate growth stimulated by testosterone propionate ([3]; 3 mg/kg/day p.o.): 1%
- Inhibition of prostate growth stimulated by testosterone propionate ([3]; 10 mg/kg/day p.o.): 0%
- Inhibition of prostate growth stimulated by testosterone propionate ([3]; 30 mg/kg/day p.o.): 49%
- in vivo effect on the hypertrophic response to testosterone propionate ([3]; same dose, 10 mg/kg/day oral): completely ineffective

SMILES: CN1C(=O)CC[C@]2(C)[C@H]3CC[C@]4(C)[C@@H](C(=O)N(C(=O)NC5CCCCC5)C5CCCCC5)CC[C@H]4[C@@H]3CC[C@@H]12 [Compound 11, 4-methyl-17β-[N-cyclohexyl-N-(N-cyclohexylcarbamoyl)carbamoyl]-4-aza-5α-androstan-3-one]
- IC50 [1, 4]: 0.041 µM

SMILES: CC(C)NC(=S)N(C(=O)[C@H]1CC[C@H]2[C@@H]3CC[C@H]4N(C)C(=O)CC[C@]4(C)[C@H]3CC[C@]12C)C(C)C [Compound 39, 4-methyl-17β-[N-isopropyl-N-(N-isopropylthiocarbamoyl)carbamoyl]-4-aza-5α-androstan-3-one]
- IC50 [1, 4]: 0.011 µM

SMILES: CC(=O)[C@H]1CC[C@H]2[C@@H]3CCC4=CC(=O)CC[C@]4(C)[C@H]3CC[C@]12C [Progesterone, progesterone, reference compound]
- IC50 [1]: 1.98 µM
